The results in this text go back to patent US20240391901A1, “SUBSTITUTED HETEROCYCLIC COMPOUND CONTAINING ALPHA-KETONE FRAMEWORK, AND USE THEREOF” (CHINA PHARMACEUTICAL UNIVERSITY, priority 2021, published 2024).

The target in one assay is T1, FAAH (Homo sapiens, UniProt O00519).
T1 construct: purchased
T1 sequence (O00519 1-579): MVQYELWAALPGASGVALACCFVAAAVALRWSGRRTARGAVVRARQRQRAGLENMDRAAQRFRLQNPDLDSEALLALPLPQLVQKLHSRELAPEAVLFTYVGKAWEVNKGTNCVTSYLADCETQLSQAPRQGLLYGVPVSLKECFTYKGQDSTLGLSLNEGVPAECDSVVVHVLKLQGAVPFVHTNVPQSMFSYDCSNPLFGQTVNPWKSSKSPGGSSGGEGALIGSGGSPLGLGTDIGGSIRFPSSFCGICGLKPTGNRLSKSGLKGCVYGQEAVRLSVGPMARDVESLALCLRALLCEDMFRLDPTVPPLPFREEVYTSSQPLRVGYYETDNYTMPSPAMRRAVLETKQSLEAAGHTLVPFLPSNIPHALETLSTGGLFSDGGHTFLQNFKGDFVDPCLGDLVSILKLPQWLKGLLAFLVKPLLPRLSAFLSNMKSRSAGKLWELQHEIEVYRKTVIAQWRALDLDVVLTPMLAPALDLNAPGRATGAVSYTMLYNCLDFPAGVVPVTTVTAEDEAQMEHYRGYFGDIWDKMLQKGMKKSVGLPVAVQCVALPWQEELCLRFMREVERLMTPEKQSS
Put plainly: In vitro FAAH enzyme inhibition activity assay (FAAH assay kit, fluorescently labeled substrate). It counts as biochemical. The method, then:
FAAH hydrolyzes AEA to form ethanolamine within cells. Different enzyme activities catalyze the formation of varying amounts of products from a fixed amount of substrate. The enzyme activity level can be assessed by measuring the amount of products generated. Based on this principle, experiments were designed in this invention. According to the FAAH assay kit instructions, a certain concentration of FAAH was diluted and added to a buffer solution along with a fluorescently labeled substrate. Compounds of various concentrations were then added, along with blank control groups and JZL-195 positive control groups. After the reaction, fluorescence analysis was performed using a plate reader, and the inhibition rate was calculated.

For assay [1], the system named is SD rats. Put plainly: Sucrose preference test, chlorpromazine-induced depression model. It counts as in vivo. The method, then: (§1) Male SD rats weighing between 180 g to 200 g were randomly divided into 6 groups, with 8 rats in each group, as follows: Normal group; Chlorpromazine group; Positive control group (Amitriptyline, 6 mg/kg); I-11 low dose group (3 mg/kg); I-11 medium dose group (6 mg/kg); I-11 high dose group (12 mg/kg); In the normal group, rats were maintained under normal conditions. In other groups, rats were intraperitoneally injected with chlorpromazine (0.2 mg/kg) once a day for three days to induce the model. After successful modeling, the respective drugs were administered according to the group. After two weeks of continuous administration, sucrose consumption test, open field test, and forced swimming test were conducted sequentially. The American Psychiatric Association considers a significant feature of depression to be the decrease in reward responsiveness, indicating a loss of pleasure. The sucrose preference test is a well-established measure for assessing reward responsiveness in experimental animals.

Assay [2] deals with SD rats. Put plainly: Open field test, chlorpromazine-induced depression model. Particulars: 6 mg/kg. It counts as in vivo. How it is done: as §1, with “After” for “The American Psychiatric Association considers a significant feature of depression to be”, “the” for “the decrease in reward responsiveness, indicating a loss of pleasure. The”, “preference test, we conducted an open field” for “preference”, “on the” for “is a well-established measure for assessing reward responsiveness in”

The subject of assay [3] is SD rats. Put plainly: Forced swimming test, chlorpromazine-induced depression model. Format: in vivo. The method, then:
as §1, with “sequentially.” for “sequentially. The American Psychiatric Association considers a significant feature of depression to be the decrease in reward responsiveness, indicating a loss of pleasure. The sucrose preference test is a well-established measure for assessing reward responsiveness in experimental animals.”

In the next assay the test system is mice. The experiment in a line: Acetic acid writhing test in mice (analgesic activity). It counts as in vivo. Particulars: 5 mg/kg s.c. The method, then: Using the acetic acid writhing test in mice as a pain model to evaluate the analgesic activity of compound I-11. The experimental animal information and procedures are outlined below.
Healthy ICR mice, of clean grade, weighing 20-25 g. The animal facility complies with the requirements of a clean laboratory, with a temperature of 20-22° C., humidity of 40%˜70%, and controlled lighting on a 12-hour light/12-hour dark cycle (lighting from 8:00 to 20:00). Mice are housed in plastic cages (280×150×180 mm) with 10 mice per cage, separated by gender, and provided ad libitum access to food and water. The diet consists of experimental rodent pellets, and the drinking water is city tap water sterilized by high-temperature autoclaving. Mice are allowed a 7-day acclimatization period. All procedures involving animals are conducted following the guidelines of the International Association for the Study of Pain Ethics Committee. Mice are housed in the animal facility upon purchase.
Glacial acetic acid and physiological saline were obtained from the China Pharmaceutical University reagent repository. Compound I-11 was a laboratory-synthesized compound (purity>98%).
Mice were marked with saturated bitter solution, with the left front limb marked as number 1, left hind limb as number 2, right front limb as number 3, right hind limb as number 4, and head as number 5. Combinations such as head with left front limb as number 6, head with left hind limb as number 7, head with right front limb as number 8, head with right hind limb as number 9, and tail as number 10 were used for identification. Animals were divided into groups, with n=10 in each group, evenly distributed between males and females.
The experiment employed the acetic acid-induced writhing test in mice to investigate the analgesic activity of the samples. […] The number of writhing movements and the latency period of mice were observed and recorded 15 minutes after acetic acid injection, and the analgesic percentage was calculated. […]

In general, IC50 refers to the concentration at which inhibition is half-maximal. A higher IC50 goes with a need for much substance. The compound `O=C(Oc1ccc([N+](=O)[O-])cc1)N1CCN(Cc2cccc(Oc3ccccc3)c2)CC1` [JZL-195, reference compound] came in with an IC50 on FAAH (values in nm) of 2.81 nM.
For the compound `Cn1c(C(=O)N2CCC(C(=O)c3nccs3)CC2)cc2cc(Cl)ccc21` [Compound I-8, (5-chloro-1-methyl-1H-indol-2-yl)(4-(thiazol-2-carbonyl)piperidin-1-yl)methanone], the IC50 against FAAH (values given in μm [sic]) came to 1030 nM.
Same read-out and setting: in the case of `O=C(c1ccccn1)C1CCN(C(=O)c2cnc3ccccc3c2)CC1` [Compound I-5] it was 125000 nM.
On to `Cn1c(C(=O)N2CCC(C(=O)c3nnc(-c4cccs4)o3)CC2)cc2cc(Cl)ccc21` [Compound I-16, (5-chloro-1-methyl-1H-indol-2-yl) (4-(5-(thiophene-2-yl)-1,3,4-oxadiazol-2-carbonyl)piperidin-1-yl)methanone], for which, at FAAH (values in nm), half-maximal inhibition (IC50) required 12.9 nM.
Compound `O=C(c1ccccn1)C1CCN(Cc2cnc3ccccc3c2)CC1` [Compound I-6, Pyridin-2-yl(1-(quinolin-3-ylmethyl)piperidin-4-yl)methanone] showed an IC50 against FAAH (values given in μm [sic]) of 132000 nM.
Turning to `Cn1c(C(=O)N2CCC(C(=O)c3nc4ccccc4s3)CC2)cc2cc(Cl)ccc21` [Compound I-9], the IC50 against FAAH (values in nm) was determined as 279 nM.
Take `Cn1c(C(=O)N2CCC(C(=O)c3ccncc3)CC2)cc2ccccc21` [Compound I-2]: the IC50 against FAAH (values given in μm [sic]) came to 14200 nM.
As for `CN(C)CCC=C1c2ccccc2CCc2ccccc21` [Amitriptyline], the “sucrose intake compared to the model group (in words)” value in the assay with SD rats [1] (high-dose I-11 (12 mg/kg), amitriptyline 6 mg/kg) is given as “significant increase in sucrose intake”. Besides, the Sucrose intake ratio in the assay with SD rats [1] (model rats, 6 mg/kg, two weeks of administration) is 78.6 ± 4.6 %. In the assay on SD rats [2], the Frequency of grooming was found to be 4.3 ± 0.3 n, the Frequency of upright was 10.6 ± 2.2 n, the “Times passing the grid” value turned out to be 58.9 ± 2.2 n and the “Total time in center” value came to 4.6 ± 0.6 s. In addition, the “immobility time versus model (in words)” value in the assay on SD rats [3] (Amitriptyline 6 mg/kg, I-11 medium and high dose, p<0.05) is “reduce the immobility time”. Also, the “Immobility Time” value with SD rats [3] (model rats, 6 mg/kg) is listed as 88.47 ± 4.64 s.
Turning to `Cn1c(C(=O)N2CCC(C(=O)c3ccncc3)CC2)cc2cc(Cl)ccc21` [Compound I-1], the IC50 at FAAH (values given in μm [sic]) amounted to 27900 nM.
At FAAH (values in nm), `Cn1c(C(=O)N2CCC(C(=O)c3nnc(-c4cccc(Cl)c4)o3)CC2)cc2cc(Cl)ccc21` [Compound I-13, (5-chloro-1-methyl-1H-indol-2-yl)(4-(5-(3-chlorophenyl)-1,3,4-oxadiazol-2-carbonyl)piperidin-1-yl)methanone] had an IC50 of 89.7 nM.
With `Cn1c(C(=O)N2CCC(C(=O)c3ncco3)CC2)cc2cc(Cl)ccc21` [Compound I-7, (5-Chloro-1-methyl-1H-indol-2-yl)(4-(oxazole-2-carbonyl)piperidin-1-yl) methanone], the IC50 against FAAH (values in nm) was 77.9 nM.
Same read-out and setting: the value for `Cn1c(C(=O)N2CCC(C(=O)c3ncc(-c4ccccc4)o3)CC2)cc2cc(Cl)ccc21` [Compound I-10, (5-chloro-1-methyl-1H-indol-2-yl)-(4-(5-phenyl-oxazol-2-carbonyl)piperidin-1-yl)methanone] was 112 nM.
In turn, `Cn1c(C(=O)N2CCC(C(=O)c3ccccn3)CC2)cc2cc(Cl)ccc21` [Compound I-3] gave an IC50 against FAAH (values given in μm [sic]) of 13500 nM.
`Cn1c(C(=O)N2CCC(C(=O)c3nnc(-c4ccco4)o3)CC2)cc2cc(Cl)ccc21` [Compound I-15, (5-chloro-1-methyl-1H-indol-2-yl)(4-(5-(furan-2-yl)-1,3,4-oxadiazol-2-carbonyl)piperidin-1-yl)methanone]: the midpoint of inhibition on FAAH (values in nm), the IC50, lay at 3.11 nM.
`CN1CC[C@]23c4c5ccc(O)c4O[C@H]2[C@@H](O)C=C[C@H]3[C@H]1C5` [Morphine]: in the assay on mice, the “Inhibition (analgesic percentage, writhing)” value is given as 100.0% and the latency period is given as 0 s. Besides, in the assay on mice (within 15 minutes after acetic acid), the writhing count is given as 0.
At FAAH (values given in μm [sic]), `O=C(c1ccccn1)C1CCN(C(=O)c2cc3ccccc3o2)CC1` [Compound I-4, (1-(benzofuran-2-carbonyl)piperidin-4-yl)(pyridin-2-yl)methanone] registered an IC50 of 10100 nM.
